Data as given in US11613527B2, “Enzyme inhibitors” (KalVista Pharmaceuticals Limited, priority 2019, dated 2023).
Converted amounts (≈) assume the structure as drawn.

Assays:
[1] = Solubility after 24 hrs in Fasted State Simulated Intestinal Fluid (FaSSIF); type: physicochemical; details: 24 hrs at 37° C., nominal concentration 1 mg/mL (as free base); for solubility at 24 h: Fasted State Simulated Intestinal Fluid (FaSSIF), thermodynamic from solid
Experimental: Selected compounds were further screened for solubility in Fasted State Simulated Intestinal Fluid (FaSSIF).
Approximately 1 mg of test compound is accurately weighed into a 2 mL vial. Volumes of the FaSSIF solution (pre-heated to 37° C.) were added to a vial to give a nominal concentration of 1 mg/mL (as free base). The FaSSIF solution was prepared on the day of use. The samples were vortexed before being placed in a Titramax 1000 shaker for 24 hrs at 37° C. and approximately 500 rpm. The samples were transferred to eppendorf tubes and centrifuged at 15,000 g (r.c.f.) for 10 min at 37° C. and analysed for concentration of test compound by LCMS.

Human KLK1 = Human KLK1 (Homo sapiens (Human), UniProt P06870); test: Determination of the IC50 for KLK1 (fluorogenic substrate H-DVal-Leu-Arg-AFC); type: biochemical
Summary of the method: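 Inhibition read as initial rate via optical absorbance change at 410 nm, giving IC50. Reactions combined human KLK1, the substrate H-DVal-Leu-Arg-AFC and varied compound concentrations at 25° C.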

Human FXIa = Human FXIa (Homo sapiens (Human), UniProt P03951); test: Determination of the % inhibition for FXIa (fluorogenic substrate Z-Gly-Pro-Arg-AFC; 40 μM or IC50); type: biochemical
Summary of the method: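 Inhibition measured from initial reaction rate, followed as absorbance change at 410 nm, with substrate Z-Gly-Pro-Arg-AFC at 25 °C. Compound tested at a single 40 μM dose for percent inhibition, or across several concentrations to derive IC50 against human FXIa.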

Human plasma kallikrein = Human plasma kallikrein (Homo sapiens (Human), UniProt P03952); test: Determination of the IC50 for plasma kallikrein (fluorogenic substrate H-DPro-Phe-Arg-AFC); type: biochemical; details: class symbols A-D, read-out: IC50 (human PKal)
Summary of the method: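 IC50 values come from initial rates, monitored as the change in absorbance at 410 nm, of residual enzyme activity. Test compound was present at various concentrations with the fluorogenic substrate H-DPro-Phe-Arg-AFC, and the reaction was run at 25° C.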

Sequence of Human KLK1 (P06870 25-262): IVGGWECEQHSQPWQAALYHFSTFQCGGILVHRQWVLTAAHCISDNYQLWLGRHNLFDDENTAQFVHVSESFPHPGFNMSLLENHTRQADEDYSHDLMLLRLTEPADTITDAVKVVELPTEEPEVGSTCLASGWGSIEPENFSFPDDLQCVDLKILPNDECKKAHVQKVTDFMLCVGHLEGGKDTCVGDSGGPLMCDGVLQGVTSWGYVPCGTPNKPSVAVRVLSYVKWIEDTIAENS
Sequence of Human FXIa (P03951 388-625): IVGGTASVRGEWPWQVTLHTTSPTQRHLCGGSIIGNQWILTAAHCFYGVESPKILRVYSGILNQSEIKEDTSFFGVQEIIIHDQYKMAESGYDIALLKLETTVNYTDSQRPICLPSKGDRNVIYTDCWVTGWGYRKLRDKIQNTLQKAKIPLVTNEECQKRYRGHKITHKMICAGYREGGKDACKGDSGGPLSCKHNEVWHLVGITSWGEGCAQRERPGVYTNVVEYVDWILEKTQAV
Sequence of Human FXIa (P03951 19-387 partner): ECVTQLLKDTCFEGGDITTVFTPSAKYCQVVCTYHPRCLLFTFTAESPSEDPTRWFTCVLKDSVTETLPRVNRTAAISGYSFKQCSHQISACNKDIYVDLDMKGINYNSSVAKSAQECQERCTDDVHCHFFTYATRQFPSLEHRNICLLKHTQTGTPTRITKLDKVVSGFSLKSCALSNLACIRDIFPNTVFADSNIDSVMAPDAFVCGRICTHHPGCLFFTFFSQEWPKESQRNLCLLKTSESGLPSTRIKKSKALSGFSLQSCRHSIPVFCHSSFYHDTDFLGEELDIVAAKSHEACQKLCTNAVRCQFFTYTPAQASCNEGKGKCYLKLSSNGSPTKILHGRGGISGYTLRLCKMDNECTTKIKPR
Sequence of Human plasma kallikrein (P03952 391-638): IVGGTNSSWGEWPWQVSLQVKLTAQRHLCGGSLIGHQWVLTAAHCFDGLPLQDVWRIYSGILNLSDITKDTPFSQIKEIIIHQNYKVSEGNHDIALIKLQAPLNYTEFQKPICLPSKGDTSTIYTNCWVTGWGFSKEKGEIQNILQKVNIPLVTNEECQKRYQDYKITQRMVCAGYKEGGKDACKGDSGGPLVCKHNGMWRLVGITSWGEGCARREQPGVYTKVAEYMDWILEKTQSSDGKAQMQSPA
Sequence of Human plasma kallikrein (P03952 20-390 partner): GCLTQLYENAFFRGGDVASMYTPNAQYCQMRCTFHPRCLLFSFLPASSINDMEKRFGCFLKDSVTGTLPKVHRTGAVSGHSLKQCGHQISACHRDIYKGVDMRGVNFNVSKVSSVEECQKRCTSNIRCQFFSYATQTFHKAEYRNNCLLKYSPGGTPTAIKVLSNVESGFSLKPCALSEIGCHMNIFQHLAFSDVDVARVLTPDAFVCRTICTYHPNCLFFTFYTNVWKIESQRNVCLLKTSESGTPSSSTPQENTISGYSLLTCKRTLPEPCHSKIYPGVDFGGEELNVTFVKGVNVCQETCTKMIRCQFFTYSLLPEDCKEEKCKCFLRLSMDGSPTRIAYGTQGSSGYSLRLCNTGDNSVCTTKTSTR

Row | SMILES | solubility at 24 h [1] [mg/mL] | IC50 (Human KLK1) [µM] | IC50 (Human FXIa) [µM] | IC50 (Human plasma kallikrein) [µM] | FASSIF Solubility 24 hrs [1] [mg/mL]
1 | COCc1nn(Cc2ccc3c(c2)CCN(C(C)C)C3)cc1C(=O)NCc1c(-n2cnc(C(F)F)n2)ccc(OC)c1F [Example 44, N-({6-[3-(difluoromethyl)-1,2,4-triazol-1-yl]-2-fluoro-3-methoxyphenyl}methyl)-1-[(2-isopropyl-3,4-dihydro-1H-isoquinolin-6-yl)methyl]-3-(methoxymethyl)pyrazole-4-carboxamide] | > 1 | > 40 | > 40 | < 0.01 | 
2 | COCc1nn(Cc2ccc3c(c2)COCC3)cc1C(=O)NCc1c(-n2cc(C)nn2)ccc(OC)c1F [Example 133, 1-(3,4-dihydro-1H-2-benzopyran-7-ylmethyl)-N-{[2-fluoro-3-methoxy-6-(4-methyl-1,2,3-triazol-1-yl)phenyl]methyl}-3-(methoxymethyl)pyrazole-4-carboxamide] | 0.05 (≈ 96 µM) | > 40 | > 40 | 0.1 to 1 | 
3 | COCc1nn(Cc2ccc3ncccc3c2)cc1C(=O)NCc1c(-n2cnnn2)ccc(OC)c1F [RC3, N-{[2-fluoro-3-methoxy-6-(1,2,3,4-tetrazol-1-yl)phenyl]methyl}-3-(methoxymethyl)-1-(quinolin-6-ylmethyl)pyrazole-4-carboxamide, reference compound] | 0.02 (≈ 39.8 µM) | > 40 | 1.92 | < 0.01 | 
4 | COCc1nn(Cc2ccc3c(c2)CCN(C2CCC2)C3)cc1C(=O)NCc1c(-n2cc(C)nn2)ccc(OC)c1F [Example 40, 1-[(2-cyclobutyl-3,4-dihydro-1H-isoquinolin-6-yl)methyl]-N-{[2-fluoro-3-methoxy-6-(4-methyl-1,2,3-triazol-1-yl)phenyl]methyl}-3-(methoxymethyl)pyrazole-4-carboxamide] | > 1 | > 40 | > 40 | 0.01 to 0.03 | 
5 | COCc1nn(Cc2cc3c(cc2F)CCN(C)C3)cc1C(=O)NCc1c(-n2cc(C)nn2)ccc(OC)c1F [Example 118, 1-[(6-fluoro-2-methyl-3,4-dihydro-1H-isoquinolin-7-yl)methyl]-N-{[2-fluoro-3-methoxy-6-(4-methyl-1,2,3-triazol-1-yl)phenyl]methyl}-3-(methoxymethyl)pyrazole-4-carboxamide] | 0.93 (≈ 1690 µM) | > 40 | 9.9 | < 0.01 | 
6 | COc1ccc(-n2cc(C)nn2)c(CNC(=O)c2cn(Cc3ccc4c(c3)CN(C)CC4)nn2)c1F [Example 152, N-{[2-fluoro-3-methoxy-6-(4-methyl-1,2,3-triazol-1-yl)phenyl]methyl}-1-[(2-methyl-3,4-dihydro-1H-isoquinolin-7-yl)methyl]-1,2,3-triazole-4-carboxamide] | 1 (≈ 2040 µM) | > 40 | > 40 | < 0.01 | 
7 | COc1ccc(-n2cc(C)nn2)c(CNC(=O)c2cn(Cc3cc4n(n3)CCN(C)C4)nc2C(F)(F)F)c1F [Example 125, N-{[2-fluoro-3-methoxy-6-(4-methyl-1,2,3-triazol-1-yl)phenyl]methyl}-1-({5-methyl-4H,6H,7H-pyrazolo[1,5-a]pyrazin-2-yl}methyl)-3-(trifluoromethyl)pyrazole-4-carboxamide] | 0.65 (≈ 1190 µM) | > 40 | > 40 | < 0.01 | 
8 | COc1ccc(-n2cc(C)nn2)c(CNC(=O)c2cn(Cc3ccc4c(c3)CN(C)CC4)c(C)n2)c1F [Example 151, N-{[2-fluoro-3-methoxy-6-(4-methyl-1,2,3-triazol-1-yl)phenyl]methyl}-2-methyl-1-[(2-methyl-3,4-dihydro-1H-isoquinolin-7-yl)methyl]imidazole-4-carboxamide] | 0.75 (≈ 1490 µM) | > 40 | > 40 | 0.01 to 0.03 | 
9 | COCc1nn(Cc2ccc3c(c2)CN(C(C)C)CC3)cc1C(=O)NCc1c(-n2cnc(C(F)(F)F)n2)ccc(OC)c1F [Example 22, N-({2-fluoro-3-methoxy-6-[3-(trifluoromethyl)-1,2,4-triazol-1-yl]phenyl}methyl)-1-[(2-isopropyl-3,4-dihydro-1H-isoquinolin-7-yl)methyl]-3-(methoxymethyl)pyrazole-4-carboxamide] | 0.76 (≈ 1230 µM) | > 40 | > 40 | < 0.01 | 
10 | COCc1nn(Cc2ccc3ccncc3c2)cc1C(=O)NCc1c(-n2cc(C)nn2)ccc(OC)c1F [RC1, N-{[2-fluoro-3-methoxy-6-(4-methyl-1,2,3-triazol-1-yl)phenyl]methyl}-1-(isoquinolin-7-ylmethyl)-3-(methoxymethyl)pyrazole-4-carboxamide, reference compound] | 0.04 (≈ 77.6 µM) |  |  | 0.1 to 1 | 
11 | COCc1nn(Cc2cnc(N3CCCC3)nc2)cc1C(=O)NCc1c(-n2cnnn2)ccc(OC)c1F [RC4, N-{[2-fluoro-3-methoxy-6-(1,2,3,4-tetrazol-1-yl)phenyl]methyl}-3-(methoxymethyl)-1-{[2-(pyrrolidin-1-yl)pyrimidin-5-yl]methyl}pyrazole-4-carboxamide, reference compound] | 0.17 (≈ 325 µM) | > 40 |  | < 0.01 | 
12 | COCc1nn(Cc2cnc(N3CCCC3)nc2)cc1C(=O)NCc1c(-n2ccnn2)ccc(OC)c1F [RC5, N-{[2-fluoro-3-methoxy-6-(1,2,3-triazol-1-yl)phenyl]methyl}-3-(methoxymethyl)-1-{[2-(pyrrolidin-1-yl)pyrimidin-5-yl]methyl}pyrazole-4-carboxamide, reference compound] | 0.02 (≈ 38.3 µM) |  |  |  | 
13 | COCc1nn(Cc2cnc(N3CCCC3)nc2)cc1C(=O)NCc1c(-n2cc(C)nn2)ccc(OC)c1F [RC6, N-{[2-fluoro-3-methoxy-6-(4-methyl-1,2,3-triazol-1-yl)phenyl]methyl}-3-(methoxymethyl)-1-{[2-(pyrrolidin-1-yl)pyrimidin-5-yl]methyl}pyrazole-4-carboxamide, reference compound] | 0.1 (≈ 187 µM) |  |  |  | 
14 | [2H]C([2H])([2H])N1CCc2ccc(Cn3cc(C(=O)NCc4c(-n5cc(C)nn5)ccc(OC)c4F)c(COC)n3)cc2C1 [Example 119, N-{[2-fluoro-3-methoxy-6-(4-methyl-1,2,3-triazol-1-yl)phenyl]methyl}-3-(methoxymethyl)-1-{[2-(^2H3)methyl-3,4-dihydro-1H-isoquinolin-7-yl]methyl}pyrazole-4-carboxamide] |  |  |  |  | 0.96
15 | COCc1nn(Cc2ccc3c(c2)C(=O)N(C)CC3)cc1C(=O)NCc1c(-n2cc(C)nn2)ccc(OC)c1F [Example 73, N-{[2-Fluoro-3-methoxy-6-(4-methyl-1,2,3-triazol-1-yl)phenyl]methyl}-3-(methoxymethyl)-1-[(2-methyl-1-oxo-3,4-dihydroisoquinolin-7-yl)methyl]pyrazole-4-carboxamide] |  | > 40 | 11.3 | 0.03 to 0.1 | 
16 | COCc1nn(Cc2ccc3c(c2)CN(C)CC3)cc1C(=O)NCc1c(-n2cnc(C(F)F)n2)ccc(C(C)(F)F)c1F [Example 157, N-{[3-(1,1-difluoroethyl)-6-[3-(difluoromethyl)-1,2,4-triazol-1-yl]-2-fluorophenyl]methyl}-3-(methoxymethyl)-1-[(2-methyl-3,4-dihydro-1H-isoquinolin-7-yl)methyl]pyrazole-4-carboxamide] |  | > 40 | > 40 | 0.1 to 1 | 
17 | COCc1nn(Cc2cnc3c(c2)CN(C(C)C)CC3)cc1C(=O)NCc1c(-n2cc(C)nn2)ccc(OC)c1F [Example 132, N-{[2-fluoro-3-methoxy-6-(4-methyl-1H-1,2,3-triazol-1-yl)phenyl]methyl}-3-(methoxymethyl)-1-{[6-(propan-2-yl)-5,6,7,8-tetrahydro-1,6-naphthyridin-3-yl]methyl}-1H-pyrazole-4-carboxamide] | 0.56 (≈ 995 µM) |  |  | 0.01 to 0.03 | 
18 | COCc1nn(Cc2cc3n(n2)CCN(C)C3)cc1C(=O)NCc1c(-n2cc(C)nn2)ccc(OC)c1F [Example 70, N-{[2-fluoro-3-methoxy-6-(4-methyl-1,2,3-triazol-1-yl)phenyl]methyl}-3-(methoxymethyl)-1-({5-methyl-4H,6H,7H-pyrazolo[1,5-a]pyrazin-2-yl}methyl)pyrazole-4-carboxamide] |  | > 40 | > 40 | 0.01 to 0.03 | 
19 | COCc1nn(Cc2ccc3c(c2)CCOC3)cc1C(=O)NCc1c(-n2cc(C)nn2)ccc(OC)c1F [Example 68, 1-(3,4-dihydro-1H-2-benzopyran-6-ylmethyl)-N-{[2-fluoro-3-methoxy-6-(4-methyl-1,2,3-triazol-1-yl)phenyl]methyl}-3-(methoxymethyl)pyrazole-4-carboxamide] |  | > 40 | > 40 | 0.01 to 0.03 | 
